Measurements from patent publication US12569534B2, “Therapeutic nanoparticles by coacervate complexation and their use for treating bacteria” (priority 2018, dated 2026).
{Cy5} = Cy5 fluorescent dye; d = 2'-deoxy (DNA); m = 2'-O-methyl

Test system: E. Coli ATCC 25922
Assay: MIC and MBC of different treatments, Example 3
Format: cell-based
Method: Reference bacterial stains were purchased from ATCC. Clinical isolates of carbapenem-resistant bacteria were obtained from National Health Research Institutes (NHRI) and Tri-Service General Hospital (TSGH). MIC is defined as the lowest concentration of antibiotics required to inhibit the growth of bacteria. MBC is defined as the lowest concentration of antibiotics required to eradicate microorganisms. The MICs of CS and the CS NPs were determined using a broth microdilution method. Bacterial suspensions were adjusted to a turbidity of McFarland 0.5±0.05 and cultured overnight with different concentrations of CS or CS NPs. A control group without antimicrobial treatment was prepared as a reference. Following overnight incubation, solution turbidity was determined by visual inspection. Culture wells with no observable turbidity were further sub-cultured for MBC evaluation. Solutions from the clear wells were deposited onto an agar plate and cultured overnight to determine the MBCs.

Question: For “ASOftsZ: antisense oligonucleotide of ftsZ DNA fragment; Cy5-mCmCmAmU-TG-GTT-CAA-A-mCmAmUmA, m_: 2′ O-methyl bases (antisense CCAUTGGTTCAAACAUA; sugars from the 5' end m4 d9 m4, 5' {Cy5}, backbone and methylation of C not given here)”, which MBC is on record?
Answer: The MBC was greater than 2 µg/mL.

Question: And the MIC?
Answer: The MIC was greater than 2 µg/mL.
